Laboratory results reported in article PMC5657151 (Pediatric blood & cancer, 2017).
“Also recorded” adds a separate entry of the source. Like-named read-outs stand apart in the source and are kept apart here.

Key:
[1] = design: species or system human; details: in vivo
[2] = adults, PO bid, ref [6], [60]–[62], cited from earlier work
[3] = system: relapsed or refractory solid tumors; test: Pediatric phase 1 trial: tumor response; type: in vivo, human
[4] = type: in vivo, human; details: for AUC(0-t) / Cmax: median (range)

Question: With O=C1NC(=O)[C@@H](c2cn3c4c(cccc24)CCC3)[C@@H]1c1c[nH]c2ccccc12 [Tivantinib] as the compound, how does the “Anemia, maximum Gr. 1 (number of patients)” value ([1]; human) read?
Answer: 4

Question: And the “Grade 1 or 2 anemia (number)” value ([1]; human)?
Answer: 12

Question: What about the “Grade 1 or 2 fatigue (number)” value ([1]; human) of the same compound?
Answer: 8

Question: And the “Grade 1 or 2 hypoalbuminemia (number)” value ([1]; human)?
Answer: 4

Question: What about the “Grade 1 or 2 leukopenia (number)” value ([1]; human) of the same compound?
Answer: 5

Question: What about the “Grade 1 or 2 lymphopenia (number)” value ([1]; human) of the same compound?
Answer: 8

Question: And the “Grade 1 or 2 nausea (number)” value ([1]; human)?
Answer: 5

Question: And the “Grade 1 or 2 neutropenia (number)” value ([1]; human)?
Answer: 5

Question: What about the “Grade 1 or 2 thrombocytopenia (number)” value ([1]; human) of the same compound?
Answer: 3

Question: And the “Grade 1 or 2 vomiting (number)” value ([1]; human)?
Answer: 5

Question: And the “Hemoglobin increased, maximum Gr. 1 (number of patients)” value ([1]; human)?
Answer: 1

Question: What about the “Lymphocyte count decreased, maximum Gr. 1 (number of patients)” value ([1]; human) of the same compound?
Answer: 2

Question: And the “Lymphocyte count decreased, maximum Gr. 2 (number of patients)” value ([1]; human)?
Answer: 2

Question: What about the “Lymphocyte count increased, maximum Gr. 2 (number of patients)” value ([1]; human) of the same compound?
Answer: 1

Question: And the “Neutrophil count decreased, maximum Gr. 2 (number of patients)” value ([1]; human)?
Answer: 2

Question: What about the “Platelet count decreased, maximum Gr. 1 (number of patients)” value ([1]; human) of the same compound?
Answer: 2

Question: What about the “White blood cell decreased, maximum Gr. 1 (number of patients)” value ([1]; human) of the same compound?
Answer: 3

Question: What about the “grade 3 anemia (number)” value ([1]; human) of the same compound?
Answer: 1

Question: And the “grade 3 lymphopenia (number)” value ([1]; human)?
Answer: 2

Question: And the “recommended phase 2 dose (RP2D)” value ([1]; human)?
Answer: 240 mg/m^2/dose

Question: And the “Anemia, maximum Gr. 1 (number of patients)” value ([1]; human, 1 cycle)?
Answer: 9

Question: And the “Anemia, maximum Gr. 2 (number of patients)” value ([1]; human, 1 cycle)?
Answer: 3

Question: What about the “Anemia, maximum Gr. 3 (number of patients)” value ([1]; human, 1 cycle) of the same compound?
Answer: 1

Question: And the “Fatigue, maximum Gr. 1 (number of patients)” value ([1]; human, 1 cycle)?
Answer: 5

Question: What about the “Fatigue, maximum Gr. 2 (number of patients)” value ([1]; human, 1 cycle) of the same compound?
Answer: 3

Question: And the “Hypoalbuminemia, maximum Gr. 1 (number of patients)” value ([1]; human, 1 cycle)?
Answer: 2

Question: And the “Hypoalbuminemia, maximum Gr. 2 (number of patients)” value ([1]; human, 1 cycle)?
Answer: 2

Question: What about the “Lymphocyte count decreased, maximum Gr. 1 (number of patients)” value ([1]; human, 1 cycle) of the same compound?
Answer: 3

Question: What about the “Lymphocyte count decreased, maximum Gr. 2 (number of patients)” value ([1]; human, 1 cycle) of the same compound?
Answer: 5

Question: What about the “Lymphocyte count decreased, maximum Gr. 3 (number of patients)” value ([1]; human, 1 cycle) of the same compound?
Answer: 2

Question: What about the “Nausea, maximum Gr. 1 (number of patients)” value ([1]; human, 1 cycle) of the same compound?
Answer: 4

Question: And the “Nausea, maximum Gr. 2 (number of patients)” value ([1]; human, 1 cycle)?
Answer: 1

Question: What about the “Neutrophil count decreased, maximum Gr. 1 (number of patients)” value ([1]; human, 1 cycle) of the same compound?
Answer: 3

Question: And the “Neutrophil count decreased, maximum Gr. 2 (number of patients)” value ([1]; human, 1 cycle)?
Answer: 2

Question: What about the “Platelet count decreased, maximum Gr. 1 (number of patients)” value ([1]; human, 1 cycle) of the same compound?
Answer: 3

Question: What about the “Vomiting, maximum Gr. 1 (number of patients)” value ([1]; human, 1 cycle) of the same compound?
Answer: 4

Question: What about the “Vomiting, maximum Gr. 2 (number of patients)” value ([1]; human, 1 cycle) of the same compound?
Answer: 1

Question: What about the “White blood cell decreased, maximum Gr. 1 (number of patients)” value ([1]; human, 1 cycle) of the same compound?
Answer: 5

Question: And the “White blood cell decreased, maximum Gr. 2 (number of patients)” value ([1]; human, 1 cycle)?
Answer: 2

Question: What about the Sinus bradycardia [1] of the same compound?
Answer: not readily apparent

Question: And the tolerability [1]?
Answer: well tolerated

Question: And the “maximum tolerated dose (MTD)” value ([2]; amorphous form (approximately 170 mg/m^2/dose))?
Answer: 300 mg

Question: And the “maximum tolerated dose (MTD)” value ([2]; crystalline form (approximately 210 mg/m^2/dose))?
Answer: 360 mg

Question: What about the objective responses ([3]; 32 patients evaluable for response, single agent) of the same compound?
Answer: not observed; also recorded: no objective responses

Question: And the “duration of stable disease” value ([3]; patient with neuroblastoma, 28-day cycles)?
Answer: 8 cycles

Question: And the “Tmax, median (range)” value ([4]; Powder sprinkled on food, 240 mg/m^2 (n=9), Day 1 Cycle 1)?
Answer: 2.0 (1.0–6.0) h

Question: And the “inter-patient variability in Cmax and AUC0–8h” value ([4]; across all dose levels)?
Answer: 20 fold

Question: And the AUC(0-t) ([4]; human, plasma, oral, 170 mg/m2, AUC0–8h, Capsule, 170 mg/m^2 (n=6), Day 1 Cycle 1, with food)?
Answer: 3820 ng·h/mL

Question: And the Tmax ([4]; human, plasma, oral, 200 mg/m2)?
Answer: 4 h

Question: And the AUC(0-t) ([4]; human, plasma, oral, 200 mg/m2, AUC0–8h, Capsule, 200 mg/m^2 (n=7), Day 1 Cycle 1, with food)?
Answer: 9470 ng·h/mL

Question: What about the Cmax ([4]; human, plasma, oral, 200 mg/m2, Cmax, Capsule, 200 mg/m^2 (n=7), Day 1 Cycle 1, with food) of the same compound?
Answer: 2180 ng/mL

Question: And the Tmax ([4]; human, plasma, oral, 240 mg/m2)?
Answer: 2 h

Question: What about the AUC(0-t) ([4]; human, plasma, oral, 240 mg/m2, AUC0–8h, Capsule, 240 mg/m^2 (n=13), Day 1 Cycle 1, with food) of the same compound?
Answer: 5630 ng·h/mL

Question: And the AUC(0-t) ([4]; human, plasma, oral, 240 mg/m2, AUC0–8h, Powder sprinkled on food, 240 mg/m^2 (n=9), Day 1 Cycle 1)?
Answer: 7300 ng·h/mL

Question: And the Cmax ([4]; human, plasma, oral, 240 mg/m2, Cmax, Capsule, 240 mg/m^2 (n=13), Day 1 Cycle 1, with food)?
Answer: 1300 ng/mL

Question: What about the Cmax ([4]; human, plasma, oral, 240 mg/m2, Cmax, Powder sprinkled on food, 240 mg/m^2 (n=9), Day 1 Cycle 1) of the same compound?
Answer: 1530 ng/mL

Question: What about the half-life ([4]; human, plasma, oral, apparent elimination half-life, median, evaluable in 29 of 35 patients, range 1.2 – 18.0 hrs) of the same compound?
Answer: 2.7 h

Question: What about the Tmax ([4]; human, plasma, po) of the same compound?
Answer: ~2 h
